“Also recorded” adds a separate entry of the source.
Key:
Assay type in all cases: in vivo, Long Evans rat
[1] = system: learning and memory; test: Morris Water Maze learning and memory test; settings: for behavior, learning and memory during the training period: 4-week old rats; for mean latency period to arrive at the hidden platform relative to control: Trial Day 4 / final day of testing
Procedure: (§1) On the same day, sub-sets of the ic-STZ group were given a single intra-peritoneal injection of vehicle (saline), or a PPAR-α (GW7647; 25 ug/Kg), PPAR-δ (L-165,041; 2 μg/Kg), or PPAR-γ (F-L-Leu; 20 μg/Kg) activator (CalBiochem, Carlsbad, Calif.). […] In addition, at 4 weeks of age, memory and learning were evaluated using a Morris Water Maze (R. W. Hickey, M. Akino, S. Strausbaugh, G. M. De Courten-Myers. Use of the Morris water maze and acoustic startle chamber to evaluate neurologic injury after asphyxial arrest in rats. Pediatr Res 39(1) (1996), 77-84). The procedures and use of rats in these experiments were approved by the Lifespan-Rhode Island Hospital IACUC committee.
Morris Water Maze Behavioral Tests: A standard Morris Water Maze was used to measure learning (R. W. Hickey, M. Akino, S. Strausbaugh, G. M. De Courten-Myers. Use of the Morris water maze and acoustic startle chamber to evaluate neurologic injury after asphyxial arrest in rats. Pediatr Res 39(1) (1996), 77-84). On the first day of testing, the rats were oriented to the water maze and educated about the location of the platform. On the 3 subsequent days of testing, the platform was submerged just below the surface, and the rats were tested for their learning and memory of the platform location by measuring the latency period required to reach and recognize the platform. The rats were allowed 120 seconds to locate the platform, after which they were guided to it. After landing on the platform, the rats were allowed to orient themselves for 15 seconds prior to being rescued. The rats were tested three times each day, with 30 min. intervals between trials. The rats were placed in the same quadrant of the water maze for every trial, except for trials 2 and 3 on the final day testing, when the start locations were randomized to test mastery of platform memory.

[2] = system: ic-STZ-induced neurodegeneration; test: ic-STZ ± PPAR agonist: brain histopathology (H&E); settings: for preservation of cerebellar cortical architecture (H&E) / preservation of hippocampi and temporal lobes (H&E): 4 weeks after ic-STZ ± single IP PPAR agonist
Procedure: In addition, at 4 weeks of age, memory and learning were evaluated using a Morris Water Maze (R. W. Hickey, M. Akino, S. Strausbaugh, G. M. De Courten-Myers. Use of the Morris water maze and acoustic startle chamber to evaluate neurologic injury after asphyxial arrest in rats. Pediatr Res 39(1) (1996), 77-84). The procedures and use of rats in these experiments were approved by the Lifespan-Rhode Island Hospital IACUC committee.
Histopathological and Immunohistochemical Staining Studies: Whole fresh brains were immersion fixed in Histofix (Amresco, Solon, Ohio) and then sectioned in the coronal plane along standardized landmarks, embedded in paraffin, and processed for histopathological studies. In addition, fresh brains were sectioned in the coronal plane to obtain a ˜3 mm thick slice that flanked the infundibulum. The 3-mm brain slice was snap frozen between two slabs of dry ice, and then stored at −80° C. for later RNA and protein studies. The residual tissue was immersion fixed and processed for histopathological studies. […] As negative controls for the immunostaining reactions, either the primary antibody was omitted or non-relevant monoclonal antibody to Hepatitis B virus was used in place of the relevant antibody. Immunoreactivity was detected using the avidin-biotin horseradish peroxidase complex method (S. M. de la Monte, T. Luong, T. R. Neely, D. Robinson, J. R. Wands. Mitochondrial DNA damage as a mechanism of cell loss in Alzheimer's disease. Lab Invest 80(8) (2000), 1323-35). All sections were examined under code.

[3] = target: T1, IGF-I receptor (Rattus norvegicus, UniProt P24062); test: ic-STZ ± PPAR agonist: equilibrium and saturation binding to IGF-I receptors in the brain; settings: for BMAX, IGF-1 receptor saturation binding in brains of treated rats: [125I]-IGF-I tracer, pooled brain membranes, 4 weeks after ic-STZ ± IP PPAR agonist; for IGF-I receptor binding: cerebellum
T1 construct: from tissue; host or cells: rat brain (temporal lobe)
Procedure: as §1
Membrane protein extracted from fresh frozen brain tissue was used for competitive equilibrium and saturation binding assays. For total binding in equilibrium binding assays, duplicate samples were incubated in 100 μl reactions containing binding buffer (100 mM HEPES, pH 8.0, 118 mM NaCl, 1.2 mM MgSO4, 8.8 mM dextrose, 5 mM KCl, 1% bovine serum albumin) and 100 nCi/ml of [^125I] […] To measure total binding in saturation binding assays, samples from 8-12 brains per group were pooled in equal proportions, and duplicate samples were incubated in 100 μl reactions containing binding buffer and 0.0031 to 1 μCi/ml of [^125I] […] To detect non-specific binding in the equilibrium and saturation binding assays, duplicate reactions were incubated with the same concentrations of radiolabeled tracer plus 0.1 μM unlabeled (cold) competitive ligand. After 16 hours incubation at 4° C., bound radiolabeled tracer was precipitated with bovine gamma globulin and polyethylene glycol 8000. The precipitate (bound ligand) and supernatant (free ligand) fractions were counted in an LKB CompuGamma CS Gamma counter. Specific binding was calculated by subtracting fmols of non-specific binding, i.e. amount bound in the presence of excess cold ligand, from total fmols bound in the absence of unlabeled competitive ligand. GraphPad Prism 4 software (San Diego, Calif.) was used to calculate saturation binding (BMAX) and binding affinity (Kd) for each data set.

T1 sequence (P24062 31-737 limits assumed): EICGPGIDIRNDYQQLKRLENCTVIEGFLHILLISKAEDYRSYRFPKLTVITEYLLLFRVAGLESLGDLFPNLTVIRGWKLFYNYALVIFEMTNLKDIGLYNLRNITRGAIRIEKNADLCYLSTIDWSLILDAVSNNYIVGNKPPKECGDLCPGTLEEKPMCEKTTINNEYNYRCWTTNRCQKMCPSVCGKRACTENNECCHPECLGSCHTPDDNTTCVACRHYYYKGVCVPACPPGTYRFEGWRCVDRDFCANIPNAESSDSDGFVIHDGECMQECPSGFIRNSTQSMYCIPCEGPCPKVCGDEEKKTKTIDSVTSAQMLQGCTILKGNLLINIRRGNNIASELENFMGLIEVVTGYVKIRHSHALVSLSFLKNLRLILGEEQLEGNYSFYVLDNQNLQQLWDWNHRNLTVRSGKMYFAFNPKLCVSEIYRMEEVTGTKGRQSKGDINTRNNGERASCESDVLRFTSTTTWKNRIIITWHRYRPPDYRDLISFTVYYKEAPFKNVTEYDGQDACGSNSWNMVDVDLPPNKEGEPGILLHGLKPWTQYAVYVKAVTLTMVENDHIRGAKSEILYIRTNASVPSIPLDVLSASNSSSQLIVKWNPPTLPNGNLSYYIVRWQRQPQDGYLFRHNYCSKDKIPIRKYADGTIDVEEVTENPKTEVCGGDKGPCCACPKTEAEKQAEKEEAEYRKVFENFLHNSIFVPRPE
T1 sequence (P24062 742-1370 limits assumed): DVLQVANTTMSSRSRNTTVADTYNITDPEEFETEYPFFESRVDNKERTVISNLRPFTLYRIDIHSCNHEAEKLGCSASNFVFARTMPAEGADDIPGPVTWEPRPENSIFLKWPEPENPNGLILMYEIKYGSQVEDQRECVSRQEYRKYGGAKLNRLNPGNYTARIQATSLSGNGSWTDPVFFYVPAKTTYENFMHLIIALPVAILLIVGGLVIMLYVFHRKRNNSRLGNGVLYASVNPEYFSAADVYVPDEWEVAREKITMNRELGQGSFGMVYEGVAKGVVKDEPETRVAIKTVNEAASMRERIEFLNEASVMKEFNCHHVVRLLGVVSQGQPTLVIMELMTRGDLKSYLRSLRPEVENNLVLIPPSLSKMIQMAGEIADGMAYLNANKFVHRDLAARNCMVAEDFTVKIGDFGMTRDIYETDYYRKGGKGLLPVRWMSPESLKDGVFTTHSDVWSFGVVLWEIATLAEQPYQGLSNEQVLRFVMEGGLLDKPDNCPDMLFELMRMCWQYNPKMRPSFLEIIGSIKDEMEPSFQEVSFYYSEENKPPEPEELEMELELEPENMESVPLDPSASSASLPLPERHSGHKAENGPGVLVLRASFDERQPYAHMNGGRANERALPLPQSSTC

Row | SMILES | behavior, learning and memory during the training period [1] | mean latency period to arrive at the hidden platform relative to control [1] | preservation of cerebellar cortical architecture (H&E) [2] | preservation of hippocampi and temporal lobes (H&E) [2] | BMAX, IGF-1 receptor saturation binding in brains of treated rats [3] [fmol/mg protein] | IGF-I receptor binding [3] | BMAX for IGF-I receptor (in words) vs ic-STZ group ([3]; rat, in vivo) | share of temporal cortex thickness spanned by the horizontal scale bar ([2]; FIG. 25A-E, control 30%) [%] | mean latency period vs control ([1]; first 3 days of testing) | mean latency vs control ([1]; fourth day) | learning and memory in Morris Water Maze ([1]; rats surviving 4 weeks or longer, preliminary studies) | binding to IGF-I receptors ([3]; hypothalamus or cerebellum) | binding to IGF-I receptors ([3]; temporal lobe)
1 | CC(C)(Sc1ccc(CCN(CCCCC2CCCCC2)C(=O)NC2CCCCC2)cc1)C(=O)O [PPAR-α agonist, GW7647] | delayed learning and impaired memory | significantly higher | moderately effective; also recorded: markedly reduced | less effective than the PPAR-δ agonist | 0.6361 | – | – | – | – | – | – | – | –
2 | CC(C)C[C@H](NC(=O)OCC1c2ccccc2-c2ccccc21)C(=O)O [PPAR-γ agonist, F-L-Leu] | delayed learning and impaired memory | significantly higher | ineffective | least effective | 3.123 | significantly increased | increased | – | – | – | – | – | –
3 | CCCc1c(OCCCOc2ccc(OCC(=O)O)cc2)ccc(C(C)=O)c1O [PPAR-δ agonist, L-165,041] | no detectable abnormalities in behavior, learning, or memory | no significant difference | moderately effective; also recorded: markedly reduced | most striking therapeutic rescue | 0.7399 | significantly increased | – | 30 | – | – | – | – | –
4 | CN(N=O)C(=O)NC1C(O)OC(CO)C(O)C1O (stereo not shown) [STZ] | – | – | – | – | 1.204 | – | – | – | approximately twice as long as control | no significant differences | striking impairments in learning and memory | not in the hypothalamus or cerebellum | significantly reduced

— US7833513B2, “Treatment of Alzheimer's Disease” (Rhode Island Hospital, priority 2004, dated 2010)
